According to PMC6382392 (Journal of medicinal chemistry, 2018):

Experiments:
[1] = tested on: KB human tumor cells (RFC/FRα/PCFT); assay: Growth inhibition of KB human tumor cells, with and without 200 nM folic acid; details: without folic acid; mean (SE)
[2] = tested on: RT16 CHO cells expressing human FRα
[3] = tested on: D4 CHO cells expressing human FRβ; details: for IC50: Homo sapiens, CHO, read-out: IC50 growth inhibition, FRβ, D4; for IC50 growth inhibition, FRβ, D4: without folic acid, mean (SE)
[4] = tested on: NCI-IGROV1 EOC xenografts; assay: In vivo efficacy trial, subcutaneous NCI-IGROV1 EOC xenografts in SCID mice; details: for Antitumor activity toward NCI-IGROV1 tumors in vivo (in words): SCID mice, folate-deficient diet
[5] = tested on: PC43–10 CHO cells expressing human RFC; assay: Growth inhibition; details: CHO subline expressing human RFC; drug up to 1000 nM, up to 96 h; mean (SE)
FRβ = FRβ (Homo sapiens, UniProt P14207); assay: Competitive [3H]folic acid binding to FRβ in D4 CHO cells; details: 50 nM [3H]folic acid, 15 min, 0 °C
FRα = FRα (Homo sapiens, UniProt P15328); assay: Competitive [3H]folic acid binding to FRα in RT16 CHO cells; details: 50 nM [3H]folic acid, 15 min, 0 °C
PCFT = biological target: T1, PCFT (Homo sapiens, UniProt Q96NT5); assay: Competitive inhibition of [3H]MTX uptake by PCFT in R2/PCFT4 cells; format: cell-based
T1 sequence (Q96NT5 1-459): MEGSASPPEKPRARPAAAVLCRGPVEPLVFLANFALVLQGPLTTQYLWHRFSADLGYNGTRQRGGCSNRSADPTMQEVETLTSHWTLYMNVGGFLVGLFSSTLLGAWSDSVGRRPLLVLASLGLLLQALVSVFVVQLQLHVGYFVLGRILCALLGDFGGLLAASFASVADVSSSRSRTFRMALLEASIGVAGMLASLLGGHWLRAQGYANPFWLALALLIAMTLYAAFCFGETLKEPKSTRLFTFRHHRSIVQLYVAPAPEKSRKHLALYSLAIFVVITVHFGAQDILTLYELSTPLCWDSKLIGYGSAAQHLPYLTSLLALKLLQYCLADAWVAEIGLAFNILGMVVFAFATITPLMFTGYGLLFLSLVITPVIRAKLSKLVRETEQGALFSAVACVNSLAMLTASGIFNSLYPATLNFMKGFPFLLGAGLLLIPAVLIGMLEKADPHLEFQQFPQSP

FRβ, sequence (P14207 17-255): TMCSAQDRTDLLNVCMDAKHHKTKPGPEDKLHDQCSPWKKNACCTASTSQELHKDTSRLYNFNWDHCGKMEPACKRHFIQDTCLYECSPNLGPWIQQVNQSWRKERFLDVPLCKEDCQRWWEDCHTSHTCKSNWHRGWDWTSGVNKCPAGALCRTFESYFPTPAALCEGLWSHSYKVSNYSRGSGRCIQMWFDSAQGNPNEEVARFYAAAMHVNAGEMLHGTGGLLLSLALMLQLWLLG
FRα, sequence (P15328 25-257): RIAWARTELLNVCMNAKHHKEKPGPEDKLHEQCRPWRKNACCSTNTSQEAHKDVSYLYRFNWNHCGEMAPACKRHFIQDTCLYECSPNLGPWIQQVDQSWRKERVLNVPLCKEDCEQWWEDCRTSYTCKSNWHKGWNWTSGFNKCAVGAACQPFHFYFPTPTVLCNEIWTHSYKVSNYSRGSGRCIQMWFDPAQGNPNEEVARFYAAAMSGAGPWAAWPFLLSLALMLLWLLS

Compound: Nc1nc2[nH]c(CCC#Cc3ccc(C(=O)N[C@@H](CCC(=O)O)C(=O)O)nc3)cc2c(=O)[nH]1 [Compound 9, (5-(4-(2-Amino-4-oxo-4,7-dihydro-3H-pyrrolo[2,3-d]pyrimidin-6-yl)but-1-yn-1-yl)picolinoyl)-L-glutamic Acid]
- IC50 growth inhibition, RFC/FRα/PCFT, KB [1]: inactive
- Fold less active than 6, FRα-expressing CHO cells [2]: ~ 4 fold

Compound: Nc1nc2[nH]c(CCC#Cc3cccc(C(=O)N[C@@H](CCC(=O)O)C(=O)O)n3)cc2c(=O)[nH]1 [Compound 10, (6-(4-(2-Amino-4-oxo-4,7-dihydro-3H-pyrrolo[2,3-d]pyrimidin-6-yl)but-1-yn-1-yl)picolinoyl)-L-glutamic Acid]
- IC50 [3]: > 1 µM
- IC50 growth inhibition, FRβ, D4 [3]: inactive
- IC50 ([2]; Homo sapiens, RT16, read-out: IC50 growth inhibition, FRα, RT16): > 1 µM
- IC50 growth inhibition, FRα, RT16 ([2]; without folic acid, mean (SE)): no activity

Compound: Nc1nc2[nH]c(CCCCc3ccc(C(=O)N[C@@H](CCC(=O)O)C(=O)O)nc3)cc2c(=O)[nH]1 [Compound 6, (5-(4-(2-Amino-4-oxo-4,7-dihydro-3H-pyrrolo[2,3-d]pyrimidin-6-yl)butyl)picolinoyl)-L-glutamic Acid]
- Antitumor activity toward NCI-IGROV1 tumors in vivo (in words) [4]: excellent activity
- Antitumor activity, standard (high folate) diet ([4]; mice on standard folate-replete diet): abolished
- IC50 growth inhibition, RFC, PC43–10 [5]: no activity

Compound: Nc1nc2[nH]c(CCCCc3cccc(C(=O)N[C@@H](CCC(=O)O)C(=O)O)n3)cc2c(=O)[nH]1 [Compound 7, (6-(4-(2-Amino-4-oxo-4,7-dihydro-3H-pyrrolo[2,3-d]pyrimidin-6-yl)butyl)picolinoyl)-L-glutamic Acid]
- Relative binding affinity to FRβ (vs folic acid) (FRβ): sharply reduced
- IC50 [3]: > 1 µM
- IC50 growth inhibition, FRβ, D4 [3]: inactive
- Relative binding affinity to FRα (vs folic acid) (FRα): sharply reduced

Compound: Nc1nc2[nH]c(CCCCc3ccc(C(=O)N[C@@H](CCC(=O)O)C(=O)O)cc3)cc2c(=O)[nH]1 [Compound 1, reference compound]
- IC50 growth inhibition, RFC, PC43–10 [5]: no activity

Compound: Nc1nc2[nH]cc(CCc3ccc(C(=O)N[C@@H](CCC(=O)O)C(=O)O)cc3)c2c(=O)[nH]1 [PMX, N-{4-[2-(2-amino-3,4-dihydro-4-oxo-7H-pyrrolo-[2,3-d]pyrimidin-5-yl)ethyl]benzoyl}-L-glutamic acid, reference compound]
- Antitumor activity toward NCI-IGROV1 tumors in vivo (in words) [4]: inactive
- inhibition at 10 µM (PCFT; R2/PCFT4, pH 5.5, read-out: Inhibition of [3H]MTX transport by PCFT): ≥ 90%

Compound: CN(Cc1cnc2nc(N)nc(N)c2n1)c1ccc(C(=O)N[C@@H](CCCNC(=O)c2ccccc2C(=O)O)C(=O)O)cc1 [PT523, Nα-(4-amino-4-deoxypteroyl)-Nδ-hemiphthaloyl-L-ornithine]
- Effect on [3H]MTX uptake by PCFT (PCFT; pH 5.5 and pH 6.8, 1 or 10 μM): no effect
